According to ChEMBL document CHEMBL1201862, “PubChem BioAssay data set” (2004):
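Protocol summary: plate cells (96-well), add compound at 5 concentrations, incubate 48 h, interpolate endpoints linearly. Here, GI50 denotes the concentration required for 50% inhibition of growth.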 Calls of active or inactive are those of the source. No stated cut-off is given here; in the data, active = GI50 up to about 1.1 µM and inactive = higher.

Tests used:
Assay in all cases: NCI-60 cell line screen, 48 h
CCRF-CEM = system: CCRF-CEM
HOP-92 = system: HOP-92
BT-549 = system: BT-549
PC-3 = system: PC-3
HL-60 = system: HL-60
MDA-MB-435 = system: MDA-MB-435
COLO 205 = system: COLO 205
MCF7 = system: MCF7
SN12C = system: SN12C
HT-29 = system: HT-29
KM12 = system: KM12
SF-268 = system: SF-268
ACHN = system: ACHN
SK-OV-3 = system: SK-OV-3
CAKI-1 = system: CAKI-1
OVCAR-4 = system: OVCAR-4
MDA-N = system: MDA-N
DU-145 = system: DU-145
786-0 = system: 786-0
UO-31 = system: UO-31

Measured: GI50

COC1(CC[C@H](C)COC2OC(CO)C(O)C(O)C2O)O[C@H]2C[C@H]3[C@@H]4CC=C5C[C@@H](OC6OC(CO)C(OC7OC(C)C(O)C(O)C7O)C(O)C6OC6OC(C)C(O)C(O)C6O)CC[C@]5(C)[C@H]4CC[C@]3(C)[C@H]2[C@@H]1C (stereo not given in full)
inactive: CCRF-CEM 11.1 µM | HOP-92 1.9 µM | BT-549 4.88 µM | PC-3 3.28 µM | HL-60 8.55 µM | MDA-MB-435 1.77 µM | COLO 205 6.25 µM | MCF7 8.45 µM | SN12C 7.76 µM | HT-29 2.52 µM | KM12 2.47 µM | SF-268 3.24 µM | ACHN 12 µM | SK-OV-3 2.82 µM | CAKI-1 1.48 µM | OVCAR-4 3.78 µM | MDA-N 2.88 µM | DU-145 2.42 µM | 786-0 2.42 µM | UO-31 2.47 µM
